Test results reported in patent US4918056A, “2-substituted arabinopyranosyl nucleosides and nucleotides” (priority 1986, dated 1990).

Tested on: L1210 leukemia cells
Test: L1210 leukemia cell growth inhibition (48 hr, Coulter counter)
Assay type: cell-based, mouse
Conditions: Mus musculus, L1210, RPMI 1640, 10% fetal calf serum
Description: Compounds 85024, 85023, 85058, 85027 and 85060 having a glycosidic linkage between the 2'carbon of the arabinose (in pyranose configuration) and base were evaluated for their growth inhibitory action on L1210 leukemia cells maintained in RPMI 1640 medium supplemented with 10% fetal calf serum and 16 mM HEPES, pH 7.2. Cellular growth inhibition was determined by incubating […] for 48 hr in 2 ml of media containing varying concentrations of drugs. Cell growth inhibition (50% growth inhibitory concentration, IC50) was determined after counting cells with a Coulter counter (Bernacki et al., Cancer Res. 45, 695, 1985). Drug concentrations which inhibited cell growth by 50% (IC50) are listed for each compound in Table 1.

For `COC1OC[C@@H](OC(C)=O)[C@@H](OC(C)=O)[C@]1(F)n1ccc(=O)[nH]c1=O` (stereo partly drawn) [compound 85024, Methyl 3,4-di-0-acetyl-2-deoxy-2(R)-[1H,3H-2,4-dioxo-1-pyrimidinyl]-2-fluoro-α-D-arabinopyranoside [5a] and methyl 3,4-di-0-acetyl-2-deoxy-2(R)-[1H,3H-2,4-dioxo-1-pyrimidinyl]-2-fluoro-β-D-arabinopyranoside [6a]], the IC50 was 55 µM.
